Drawing on US12404270B2, “Quinazoline derivatives as LPA receptor 2 inhibitors” (CHIESI FARMACEUTICI S.P.A., priority 2019, dated 2025), this text covers IC50 for 21 compounds.

As a reminder, the IC50 is the concentration needed to halve the response being measured.

For this assay, the target named is T1, human recombinant LPA2 expressed in CHO cells (Homo sapiens, UniProt Q9HBW0).
T1 construct: expressed in transfected cells; host or cells: CHO (CHO-hLPA2 cell line)
The assay can be described thus: FLIPR calcium mobilization assay, LPA2 antagonism in CHO-hLPA2 cells. In kind it is cell-based. The method, then: The effectiveness of compounds of the present invention as LPA2 antagonist can be determined at the human recombinant LPA2 expressed in CHO cells, using a FLIPR assay in 384 well format.
CHO-hLPA2 cell lines are cultured in a humidified incubator at 5% CO2 in DMEM/F-12 (1:1) MIXTURE with 2 mM Glutamax, supplemented with 10% of Foetal Bovine Serum, 1 mM Sodium Pyruvate, 11 mM Hepes and 1× Penicillin/Streptomycin. CHO hLPA2 cells are seeded into black walled clear-bottom 384-well plates (#781091, Greiner Bio-One GmbH) at a density of 7,500 cells per well in 50 μl culture media and grown overnight in a 37° C. humidified CO2-incubator. Serial dilutions (1:3 or 1:4, 11 points CRC) of compounds are performed in 100% DMSO at 200× the final concentration. The compounds are diluted 1:50 prior to the experiment with Assay Buffer (20 mM HEPES, 145 mM NaCl, 5 mM KCl, 5.5 mM glucose, 1 mM MgCl2 and 2 mM CaCl2, pH 7.4 containing 0.01% Pluronic F-127) to obtain a solution corresponding to […] the final concentration in the assay (4×, 2% DMSO). The final concentration of DMSO in the assay will be 0.5% in each well. Medium is removed by aspiration and cells are then incubated with 30 μl of a loading solution containing 5 μM of the cytoplasmic Ca2+ indicator Cal-520 AM in Assay Buffer containing 2.5 mM probenecid for 30 min at 37° C. incubator (cell loading). The loaded cell plates are transferred into the FLIPR instrument and calcium responses are monitored during the on-line addition protocols. For testing of compounds, after the cell loading, 10 μl/well of 4× antagonists' solution was added onto the cells. […] Intracellular peak fluorescence values subtracted by baseline fluorescence are exported and analysed to determine IC50 values, respectively. The calcium response is expressed as percentage of the maximal inhibition of the EC80 agonist response.
The raw data (peak height expressed as relative fluorescence units) are normalized and transformed into “percent of inhibition”. Curve fitting and pIC50 (−Log IC50) estimations are carried out using a four-parameter logistic model using XLfit Software.
On the technique in general: Calcium assays in cells follow changes in intracellular calcium, usually with a dye or a luminescent sensor.

[1] abbreviates: CHO-hLPA2 cells, inhibition of LPA EC80 Ca2+ response, 30 min pre-incubation, read-out: LPA2 IC50.

Where two headings read alike, the source gives them in different places.

T1 sequence (Q9HBW0 whole entry): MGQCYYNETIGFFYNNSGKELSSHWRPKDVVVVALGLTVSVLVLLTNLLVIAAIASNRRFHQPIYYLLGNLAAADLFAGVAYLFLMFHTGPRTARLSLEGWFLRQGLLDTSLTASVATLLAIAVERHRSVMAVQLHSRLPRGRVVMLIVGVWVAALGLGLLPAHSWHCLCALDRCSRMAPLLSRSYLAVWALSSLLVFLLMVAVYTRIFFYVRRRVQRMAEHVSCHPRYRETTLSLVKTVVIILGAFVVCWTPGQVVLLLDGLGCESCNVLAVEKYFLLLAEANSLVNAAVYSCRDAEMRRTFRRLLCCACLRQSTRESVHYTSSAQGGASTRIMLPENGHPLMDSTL

Turning to `COC(=O)Nc1nc(C)c(S(=O)(=O)N2CCN(C[C@H](C)Nc3nc(C4CC4)nc4ccccc34)CC2)s1` [Example 15, methyl N-[5-({4-[(2S)-2-[(2-cyclopropylquinazolin-4-yl)amino]propyl]piperazin-1-yl}sulfonyl)-4-methyl-1,3-thiazol-2-yl]carbamate], the IC50 under setting [1] was less than 1000 nM.

Turning to `COC(=O)Nc1nc(C)c(S(=O)(=O)N2CCN(C[C@H](C)Nc3ncnc4c(C(=O)N5CCC[C@@H]5C)cccc34)CC2)s1` (racemic) [Example 82, methyl N-[4-methyl-5-({4-[(2S)-2-({8-[(2S)-2-methylpyrrolidine-1-carbonyl]quinazolin-4-yl}amino)propyl]piperazin-1-yl}sulfonyl)-1,3-thiazol-2-yl]carbamate], the IC50 under setting [1] lay in the range of 10 to 100 nM.

On to `Cc1noc(-c2ccc(S(=O)(=O)N3CCN(C[C@H](C)Nc4ncnc5c(C(=O)N6CCC[C@@H]6C(F)(F)F)cccc45)CC3)s2)c1C` (racemic) [Example 76, N-[(2S)-1-(4-{[5-(3,4-dimethyl-1,2-oxazol-5-yl)thiophen-2-yl]sulfonyl}piperazin-1-yl)propan-2-yl]-8-[(2R)-2-(trifluoromethyl)pyrrolidine-1-carbonyl]quinazolin-4-amine], for which the IC50 under setting [1] was less than 10 nM.

`COC(=O)Nc1nc(C)c(S(=O)(=O)N2CCN(C[C@H](C)Nc3ncnc4c(C(=O)N5CC6CC6C5)cccc34)CC2)s1` (mixture of isomers) [Example 87, methyl N-[5-({4-[(2S)-2-[(8-{3-azabicyclo[3.1.0]hexane-3-carbonyl}quinazolin-4-yl)amino]propyl]piperazin-1-yl}sulfonyl)-4-methyl-1,3-thiazol-2-yl]carbamate]: the IC50 under setting [1] is 10 to 100 nM.

Take `COC(=O)Nc1nc(C)c(S(=O)(=O)N2CCN(C[C@H](C)Nc3ncnc4c([N+](=O)[O-])cccc34)CC2)s1` [Example 55, methyl N-[4-methyl-5-({4-[(2S)-2-[(8-nitroquinazolin-4-yl)amino]propyl]piperazin-1-yl}sulfonyl)-1,3-thiazol-2-yl]carbamate]: under setting [1], the IC50 is less than 1000 nM.

With `CC(=O)Nc1ncc(S(=O)(=O)N2CCN(C[C@H](C)Nc3nc(C)nc4c(C(F)(F)F)cccc34)CC2)s1` [Example 13, N-[5-({4-[(2S)-2-{[2-methyl-8-(trifluoromethyl)quinazolin-4-yl]amino}propyl]piperazin-1-yl}sulfonyl)-1,3-thiazol-2-yl]acetamide], the IC50 under setting [1] was in the range of 10 to 100 nM.

`COC(=O)c1cccc2c(N[C@@H](C)CN3CCN(S(=O)(=O)c4cnc(-c5ccccc5)s4)CC3)ncnc12` [Example 12, methyl 4-{[(2S)-1-{4-[(2-phenyl-1,3-thiazol-5-yl)sulfonyl]piperazin-1-yl}propan-2-yl]amino}quinazoline-8-carboxylate]: the half-maximal inhibitory concentration (IC50) under setting [1] was 10 to 100 nM.

As to `COC(=O)N(C)c1nc(C)c(S(=O)(=O)N2CCN(C[C@H](C)Nc3ncnc4c(C(F)(F)F)cccc34)CC2)s1` [Example 89, methyl N-methyl-N-[4-methyl-5-({4-[(2S)-2-{[8-(trifluoromethyl)quinazolin-4-yl]amino}propyl]piperazin-1-yl}sulfonyl)-1,3-thiazol-2-yl]carbamate], the concentration for half-maximal inhibition (IC50) under setting [1] lay within 10 to 100 nM.

`COC(=O)Nc1nc(C)c(S(=O)(=O)N2CCN(C[C@H](C)Nc3ncnc4c(C(=O)N5CCC[C@H]5C(F)(F)F)cccc34)CC2)s1` (racemic) [Example 84, methyl N-[4-methyl-5-({4-[(2S)-2-({8-[(2S)-2-(trifluoromethyl)pyrrolidine-1-carbonyl]quinazolin-4-yl}amino)propyl]piperazin-1-yl}sulfonyl)-1,3-thiazol-2-yl]carbamate]: under setting [1], the IC50 was less than 1000 nM.

`COCc1nc(N[C@@H](C)CN2CCN(S(=O)(=O)c3ccc(-c4onc(C)c4C)s3)CC2)c2cccc(C(F)(F)F)c2n1` [Example 61, N-[(2S)-1-(4-{[5-(3,4-dimethyl-1,2-oxazol-5-yl)thiophen-2-yl]sulfonyl}piperazin-1-yl)propan-2-yl]-2-(methoxymethyl)-8-(trifluoromethyl)quinazolin-4-amine]: the IC50 under setting [1] was less than 1000 nM.

Consider `C[C@@H](CN1CCN(S(=O)(=O)c2ccc(-c3ccno3)o2)CC1)Nc1ncnc2c(C(F)(F)F)cccc12` [Example 54, N-[(2S)-1-(4-{[5-(1,2-oxazol-5-yl)furan-2-yl]sulfonyl}piperazin-1-yl)propan-2-yl]-8-(trifluoromethyl)quinazolin-4-amine], for which, under setting [1], the IC50 is less than 1000 nM.

On to `CC(=O)Nc1ccc(S(=O)(=O)N2CCN(C[C@H](C)Nc3ncnc4c(C(F)(F)F)cccc34)CC2)s1` [Example 90, N-[5-({4-[(2S)-2-{[8-(trifluoromethyl)quinazolin-4-yl]amino}propyl]piperazin-1-yl}sulfonyl)thiophen-2-yl]acetamide], for which, under setting [1], the IC50 is less than 1000 nM.

For the compound `Cc1noc(-c2ccc(S(=O)(=O)N3CCN(C[C@H](C)Nc4ncnc5c(C(F)(F)F)cccc45)CC3)o2)c1C` [Example 68, N-[(2S)-1-(4-{[5-(3,4-dimethyl-1,2-oxazol-5-yl)furan-2-yl]sulfonyl}piperazin-1-yl)propan-2-yl]-8-(trifluoromethyl)quinazolin-4-amine], the IC50 under setting [1] was 10 to 100 nM.

In the case of `C[C@@H](CN1CCN(S(=O)(=O)c2cc(-c3ccno3)cs2)CC1)Nc1ncnc2c(C(F)(F)F)cccc12` [Example 71, N-[(2S)-1-(4-{[4-(1,2-oxazol-5-yl)thiophen-2-yl]sulfonyl}piperazin-1-yl)propan-2-yl]-8-(trifluoromethyl)quinazolin-4-amine], under setting [1], the IC50 fell in the range of 10 to 100 nM.

Regarding `COC(=O)c1cccc2c(N[C@@H](C)CN3CCN(S(=O)(=O)c4cnc(NC(C)=O)s4)CC3)ncnc12` [Example 20, methyl 4-{[(2S)-1-{4-[(2-acetamido-1,3-thiazol-5-yl)sulfonyl]piperazin-1-yl}propan-2-yl]amino}quinazoline-8-carboxylate], under setting [1], the IC50 was 10 to 100 nM.

For `Cc1noc(-c2ccc(S(=O)(=O)N3CCN(C[C@H](C)Nc4ncnc5c(C(=O)N6CCC[C@@H]6C)cccc45)CC3)s2)c1C` (racemic) [Example 86, N-[(2S)-1-(4-{[5-(3,4-dimethyl-1,2-oxazol-5-yl)thiophen-2-yl]sulfonyl}piperazin-1-yl)propan-2-yl]-8-[(2S)-2-methylpyrrolidine-1-carbonyl]quinazolin-4-amine], the IC50 under setting [1] is less than 10 nM.

On to `COC(=O)Nc1nc(C)c(S(=O)(=O)N2CCN(C[C@H](C)Nc3ncnc4ncccc34)CC2)s1` [comparative Example A, Methyl (S)-(4-methyl-5-((4-(2-(pyrido[2,3-d]pyrimidin-4 ylamino)propyl)piperazin-1-yl)sulfonyl)thiazol-2-yl)carbamate, reference compound], for which the IC50 (same in vitro assay as Table 2, read-out: IC50 on LPA2 receptor) was greater than 3000 nM.

Consider `C[C@@H](CN1CCN(S(=O)(=O)c2ccc(Cl)c(Cl)c2)CC1)Nc1ncnc2c(Cl)cccc12` [Example 6, 8-chloro-N-[(2S)-1-[4-(3,4-dichlorobenzenesulfonyl)piperazin-1-yl]propan-2-yl]quinazolin-4-amine], for which the IC50 under setting [1] is less than 1000 nM.

Turning to `COCC(=O)Nc1ncc(S(=O)(=O)N2CCN(C[C@H](C)Nc3ncnc4c(C(F)(F)F)cccc34)CC2)s1` [Example 24, 2-methoxy-N-[5-({4-[(2S)-2-{[8-(trifluoromethyl)quinazolin-4-yl]amino}propyl]piperazin-1-yl}sulfonyl)-1,3-thiazol-2-yl]acetamide], the IC50 under setting [1] is less than 1000 nM.

In the case of `Cc1cc(-c2ccc(S(=O)(=O)N3CCN(C[C@H](C)Nc4ncnc5c(C(F)(F)F)cccc45)CC3)o2)on1` [Example 52, N-[(2S)-1-(4-{[5-(3-methyl-1,2-oxazol-5-yl)furan-2-yl]sulfonyl}piperazin-1-yl)propan-2-yl]-8-(trifluoromethyl)quinazolin-4-amine], the IC50 under setting [1] is 10 to 100 nM.

With `COC(=O)Nc1nc(C)c(S(=O)(=O)N2CCN(C[C@H](C)Nc3ncnc4c(C(=O)OC)cccc34)CC2)s1` [Example 17, methyl 4-{[(2S)-1-[4-({2-[(methoxycarbonyl)amino]-4-methyl-1,3-thiazol-5-yl}sulfonyl)piperazin-1-yl]propan-2-yl]amino}quinazoline-8-carboxylate], the IC50 under setting [1] was in the range of 10 to 100 nM.
